In US11439980B2, “Contaminant-activated photocatalysis” (UNIVERSITY OF FLORIDA RESEARCH FOUNDATION, INC., priority 2016, dated 2022):

Assays:
[1] = Photocatalytic degradation of Mordant Orange on coated tiles under visible light; details: MO on anatase coating, N=4
Description: (§1) Photocatalytic coating formulation was prepared by adding 10 mg of anatase (A7) to 10 mL of dilute NaOH (pH=9.5) in a 20 mL scintillation vial wrapped with aluminum foil. The suspension was sonicated (Misonix Sonicator 3000, Farmingdale, NY) at the highest power level providing 180-200 W for 30 minutes total (10 min on/2 min off×3). Similarly, rutile (R22) and silica (S15) coating formulations were prepared without exposing to visible light. In case of anatase+PHF, the anatase suspension was sonicated for 30 minutes followed by addition of 1 mL of a PHF solution (1000 or 100 mg/L). The nanocomposites suspension was mixed with a magnetic stirrer for 10 minutes in dark.
(§2) Ceramic tiles were utilized to evaluate the photocatalytic degradation of organic dye and inactivation of microbes. […]
(§3) The photocatalytic experiments were carried out under fluorescent lamps (General Electric model T8 Ultramax F28T8-SPX41) at visible light irradiance of 1.8-2.0 W/m^2. […] The visible light and UVA irradiances were measured with a PMA 2140 Global detector or a PMA 2110 UVA detector attached to a PMA2110 meter (Solar Light Co., Glenside, Pa.).
(§4) The temporal changes in dye concentration were determined by measuring the absorbance after predetermined times of exposure to visible light. The inactivation of S. aureus was evaluated by determining the viable counts after exposure to visible light. […]

[2] = Photocatalytic degradation of Procion Red on coated tiles under visible light; details: PR on anatase coating, N=4
Description: as §1, §2, §3, §4

Substance | overall pseudo first order degradation rate [1] | overall pseudo first order degradation rate [2]
Mordant Orange | 0.01 h⁻¹ | –
Procion Red | – | 0.023 h⁻¹
